# Reference: paper PMC9320206, “Sanguinarine, identified as a natural alkaloid LSD1 inhibitor, suppresses lung cancer cell growth and migration” (Iranian Journal of Basic Medical Sciences, 2022)
# pIC50: −log10 of the molar value.
# Target: T1, Lysine-specific demethylase 1 (LSD1) (Homo sapiens, UniProt O60341)
# T1 construct: gene KDM1A; recombinant LSD1 (pET-28b-LSD1, expressed in BL21(DE3))
# Assay: HRP/Amplex Red fluorescence demethylase assay with H3K4me2 peptide; no-enzyme counter-screen; […] dilution reversibility assay
# Format: biochemical
compound,measurement,value
C[n+]1cc2c3c(ccc2c2ccc4cc5c(cc4c21)OCO5)OCO3 [sanguinarine],pIC50,6.40
